In patent US10208007B2, “Use of strigolactones and strigolactone analogs for treating proliferative conditions” (The State of Israel, Ministry of Agriculture & Rural …, priority 2011, dated 2019):

Key:
pT308 AKT = experiment: Immunoblot of survival signaling; type: cell-based, human; conditions: MDA-MB-231 cells, 10 ppm
Method: Protein concentration was determined using the BCA Protein Assay (Pierce), and 20-50 μg of lysate were separated in a 4-12% SDS-PAGE gel. After transfer, membranes were blocked for 15-30 min at room temperature in 5% BSA (Sigma) in Tris-buffered saline containing 0.1% Tween-20. Primary antibody was incubated for either 1.5 hours at room temperature or overnight at 4° C. Secondary antibody was incubated for 30-45 min at room temperature, and proteins were visualized with West Pico Stable (Pierce). All antibodies were used at 1:1000 dilution unless otherwise stated. pT308AKT, AKT, pT180/Y182, pT183/Y185 P38MAPK, pP38MAPK, pT202/Y204 pERK1/2, ERK1, pT183/Y185, pJNK1/2, JNK1, pT71ATF2, pT581MSK1, pT14 Cdc2, Cdc2, pT68Chk2 (cell signaling), pT334MAPKAPK, pS82HSP27 (Cell Signaling Technology, Danvers, Mass.), α-tubulin (Biomarkers, 1:50,000), Cyclin B1 (Santa Cruz Biotechnologies) and horseradish peroxidase-conjugated anti-rabbit IgG and anti-mouse IgG (1:5,000, Pierce).
The PI3K/AKT pathway regulates a wide range of cellular functions including survival and proliferation. […] PDK1 phosphorylates AKT on T308, which is itself activated by phosphorylation on S241. Levels of pS241 PDK1 were reduced upon strigolactone treatment and correlated closely with reduced AKT phosphorylation observed in strigolactone treated cells (FIG. 14).

Saccharomyces cerevisiae = experiment: Yeast cell culture growth (OD); type: cell-based
Method: Saccharomyces cerevisiae and Candida oleophila yeast cells were grown overnight in a reach nutrient media at 28° C., at 150 rpm. Following, they were diluted to 0.4 OD in low nutrient media (Lily) and were divided into 96 wells. The cells were treated with GR-24 or ST-362, at the indicated concentrations. Cell culture growth was monitored every hour for 17 hours, at 28° C., with gentle shake before each OD read. OD was determined using fluorometer. Statistical differences between curves were analyzed using compareGrowthCurves function from the Statistical Modeling package, statmod (http://bioinf.wehi.edu.au/software/compareCurves/), significance was determined once P≤0.05.

U20S cells = experiment: Strigolactone analog induced gene expression changes; type: cell-based, human; conditions: 5 ppm
Method: To further elucidate the transcriptional program by which strigolactone analogs may affect growth and survival of cancer cells, U20S cells were treated with ST-362 or MEB-55 (5 ppm) for either 6 or 24 hours to permit early and late gene expression changes to be distinguished. U20S cells were selected based on their enhanced sensitivity to strigolactone treatment (see FIG. 7). […] Up-regulation of cytokines (CCL3L3, GDF15) and growth factors (PGF), and down-regulation of TGFBR11 was also noted. Apoptosis regulating genes were also identified, including DDIT3, BIRC3 and BAG3. DDIT3 encodes a member of the CCAAT/enhancer-binding protein (C/EBP) family of transcription factors and functions as a dominant-negative inhibitor by forming heterodimers with other C/EBP members and preventing their DNA binding activity. DDIT3 is induced by stress, including DNA damage and DDIT3 over-expression can induce cell cycle arrest. After 6 hours, MEB-55 treatment was associated with increased expression of p21cip (CDKN1A), Cyclin F (CCNF), Cyclin A2 (CCNA2) and decreased expression of CDK6, whereas ST-362 induced only a modest down-regulation of Cyclin B1 (CCNB1). Therefore, changes in the expression profile of cell cycle regulators, was not a global hallmark of strigolactone exposure. The only exception was Cyclin G2 (CCNG2) whose expression was elevated in both ST-362 and MEB-55 treatment groups. Cyclin G2 is an unconventional cyclin homolog which is linked to growth inhibition and whose expression is induced by DNA damaging chemotherapeutics.

Cyclin B1 = experiment: Western blot analysis of cyclin B1 levels; type: cell-based, human; conditions: DU145, 24 hour treatment, then ALLN 4 or 8 hours

CC1=CC(O/C=C2\Cc3c(n(C)c4ccccc34)C2=O)OC1=O (racemic) [EG-5, (±) (2E)-4-methyl-2-(4-methyl-5-oxo-2,5-dihydrofuran-2-yloxymethylene)-1,4-dihydro-2H-cyclopenta[b]indol-3-one]
pT308 AKT levels / inhibition of AKT phosphorylation (pT308 AKT): slight delay in the inhibition of AKT phosphorylation, occurring between 8 and 24 hours

CC1=CC(O/C=C2/C(=O)c3c(c4cc(-c5scc6c5OCCO6)ccc4n3C)C2C)OC1=O (stereo not drawn) [ST-362, (2E)-2-[(2,5-dihydro-4-methyl-5-oxofuran-2-yloxy)methylene]-1,2-dihydro-7-(2,3-dihydrothieno[3,4-b][1,4]dioxin-7-yl)-1,4-dimethyl-cyclopenta[b]indole-3-(4H)-one]
Concentrations giving a significant reduction in cell culture growth (Saccharomyces cerevisiae; apparent from the time of application): ≥ 0.1 µM | Fold-Change ABCB1 (U20S cells; 6 hours): 3.6 fold | Fold-Change AHSA1 (U20S cells; 6 hours): 2.1 fold | Fold-Change ALDH1B1 (U20S cells; 6 hours): −2.1 fold | Fold-Change ATF3 (U20S cells; 6 hours): 2.2 fold | Fold-Change BAG3 (U20S cells; 6 hours): 4.6 fold | Fold-Change BIRC3 (U20S cells; 6 hours): −2.4 fold | Fold-Change CCL3L3 (U20S cells; 6 hours): 3.7 fold | Fold-Change CCNB1 (U20S cells; 6 hours): −2.1 fold | Fold-Change CCNG2 (U20S cells; 6 hours): 3.6 fold | Fold-Change CLDN12 (U20S cells; 6 hours): 2.3 fold | Fold-Change CYP24A1 (U20S cells; 6 hours): −2.6 fold | Fold-Change DDIT3 (U20S cells; 6 hours): 6.2 fold | Fold-Change FOXD1 (U20S cells; 6 hours): −2.4 fold | Fold-Change FOXO4 (U20S cells; 6 hours): 2.5 fold | Fold-Change GDF15 (U20S cells; 6 hours): 7.6 fold | Fold-Change GEM (U20S cells; 6 hours): 2.4 fold | Fold-Change HSPA1A (U20S cells; 6 hours): 7.3 fold | Fold-Change HSPA1B (U20S cells; 6 hours): 9.2 fold | Fold-Change HSPA1L (U20S cells; 6 hours): 2.7 fold | Fold-Change HSPA6 (U20S cells; 6 hours): 79.8 fold | Fold-Change HSPA7 (U20S cells; 6 hours): 23.3 fold | Fold-Change HSPB8 (U20S cells; 6 hours): 2.7 fold | Fold-Change PGF (U20S cells; 6 hours): 6.2 fold | Fold-Change PPP1R15A (U20S cells; 6 hours): 2.7 fold | Fold-Change PTGS2 (U20S cells; 6 hours): 3.4 fold | Fold-Change SLC3A2 (U20S cells; 6 hours): 3.6 fold | Fold-Change SLC7A11 (U20S cells; 6 hours): 2.2 fold | Fold-Change SLC31A2 (U20S cells; 6 hours): 2.3 fold | Fold-Change SLC44A2 (U20S cells; 6 hours): 2.5 fold | Fold-Change TGFBR2 (U20S cells; 6 hours): −2.0 fold | Fold-Change ABCA13 (U20S cells; 24 hours): −2.8 fold | Fold-Change AMPH (U20S cells; 24 hours): −3.5 fold | Fold-Change BIRC3 (U20S cells; 24 hours): 2.6 fold | Fold-Change CCL20 (U20S cells; 24 hours): 6.6 fold | Fold-Change CCNB1 (U20S cells; 24 hours): −2.2 fold | Fold-Change CCNG2 (U20S cells; 24 hours): 2.7 fold | Fold-Change CTGF (U20S cells; 24 hours): 2.4 fold | Fold-Change CYR61 (U20S cells; 24 hours): 3.6 fold | Fold-Change DHRS2 (U20S cells; 24 hours): −2.5 fold | Fold-Change DUSP5 (U20S cells; 24 hours): 3.9 fold | Fold-Change E2F2 (U20S cells; 24 hours): −3.3 fold | Fold-Change EGR1 (U20S cells; 24 hours): 2.2 fold | Fold-Change ESM1 (U20S cells; 24 hours): 6.9 fold | Fold-Change GDF15 (U20S cells; 24 hours): 4.2 fold | Fold-Change HSPA5 (U20S cells; 24 hours): −2.8 fold | Fold-Change ITGA2 (U20S cells; 24 hours): 3.4 fold | Fold-Change KIF20A (U20S cells; 24 hours): −4.7 fold | Fold-Change LAMA1 (U20S cells; 24 hours): 3.0 fold | Fold-Change RN7SK (U20S cells; 24 hours): 16.8 fold | Fold-Change SCG5 (U20S cells; 24 hours): 3.0 fold | Fold-Change SLC7A11 (U20S cells; 24 hours): 3.6 fold | Fold-Change SNORD3A (U20S cells; 24 hours): 4.1 fold | Fold-Change SNORD3C (U20S cells; 24 hours): 4.0 fold | Fold-Change SNORD3D (U20S cells; 24 hours): 4.8 fold | Fold-Change SPP1 (U20S cells; 24 hours): 3.9 fold | Fold-Change TGFBI (U20S cells; 24 hours): −3.4 fold | Partial rescue of Cyclin B1 levels by ALLN (Cyclin B1): 2 fold

CC1=C[C@H](O/C=C2/C(=O)O[C@@H]3c4ccccc4C[C@H]23)OC1=O (relative stereo) [GR-24, (3aR*,8bS*,E)-3-(((R*)-4-methyl-5-oxo-2,5-dihydrofuran-2-yloxy)methylene)-3,3a,4,8b-tetrahydro-2H-indeno[1,2-b]furan-2-one]
Cell culture growth (Saccharomyces cerevisiae; apparent 8 hours after application, 17 hours monitoring): significant reduction in cell culture growth

CC1=CC(O/C=C2\Cc3c(n(C)c4cc(-c5cccs5)ccc34)C2=O)OC1=O (racemic) [MEB-55, (±) 2E-4-methyl-2-(4-methyl-5-oxo-2,5-dihydrofuran-2-yloxymethylene)-6-thiophen-2-yl-1,4-dihydro-2H-cyclopenta[b]indol-3-one]
Fold-Change ABCB1 (U20S cells; 6 hours): 8.1 fold | Fold-Change AHSA1 (U20S cells; 6 hours): 2.6 fold | Fold-Change ALDH1B1 (U20S cells; 6 hours): −3.1 fold | Fold-Change ATF3 (U20S cells; 6 hours): 4.0 fold | Fold-Change BAG3 (U20S cells; 6 hours): 7.7 fold | Fold-Change BIRC3 (U20S cells; 6 hours): −3.2 fold | Fold-Change CCNG2 (U20S cells; 6 hours): 3.1 fold | Fold-Change CLDN12 (U20S cells; 6 hours): 2.5 fold | Fold-Change CYP24A1 (U20S cells; 6 hours): −3.6 fold | Fold-Change DDIT3 (U20S cells; 6 hours): 14.1 fold | Fold-Change FGF2 (U20S cells; 6 hours): 2.1 fold | Fold-Change FOXD1 (U20S cells; 6 hours): −2.7 fold | Fold-Change FOXO4 (U20S cells; 6 hours): 2.2 fold | Fold-Change GDF15 (U20S cells; 6 hours): 19.0 fold | Fold-Change GEM (U20S cells; 6 hours): 4.9 fold | Fold-Change HSPA1A (U20S cells; 6 hours): 12.4 fold | Fold-Change HSPA1B (U20S cells; 6 hours): 12.4 fold | Fold-Change HSPA1L (U20S cells; 6 hours): 3.9 fold | Fold-Change HSPA6 (U20S cells; 6 hours): 158.7 fold | Fold-Change HSPA7 (U20S cells; 6 hours): 55.7 fold | Fold-Change HSPB8 (U20S cells; 6 hours): 3.6 fold | Fold-Change PGF (U20S cells; 6 hours): 7.0 fold | Fold-Change PPP1R15A (U20S cells; 6 hours): 3.7 fold | Fold-Change PTGS2 (U20S cells; 6 hours): 6.9 fold | Fold-Change SLC3A2 (U20S cells; 6 hours): 3.4 fold | Fold-Change SLC7A11 (U20S cells; 6 hours): 2.1 fold | Fold-Change SLC44A2 (U20S cells; 6 hours): 2.1 fold | Fold-Change TGFBR2 (U20S cells; 6 hours): −2.3 fold | Fold-Change ABCA13 (U20S cells; 24 hours): −2.6 fold | Fold-Change AMPH (U20S cells; 24 hours): −2.7 fold | Fold-Change BIRC3 (U20S cells; 24 hours): 2.4 fold | Fold-Change CCL20 (U20S cells; 24 hours): 11.9 fold | Fold-Change CTGF (U20S cells; 24 hours): 2.1 fold | Fold-Change CYR61 (U20S cells; 24 hours): 2.2 fold | Fold-Change DHRS2 (U20S cells; 24 hours): −2.3 fold | Fold-Change DUSP5 (U20S cells; 24 hours): 3.8 fold | Fold-Change E2F2 (U20S cells; 24 hours): −2.2 fold | Fold-Change EGR1 (U20S cells; 24 hours): 2.7 fold | Fold-Change ESM1 (U20S cells; 24 hours): 21.2 fold | Fold-Change GDF15 (U20S cells; 24 hours): 2.2 fold | Fold-Change HSPA5 (U20S cells; 24 hours): −2.1 fold | Fold-Change ITGA2 (U20S cells; 24 hours): 3.6 fold | Fold-Change KIF20A (U20S cells; 24 hours): −2.4 fold | Fold-Change LAMA1 (U20S cells; 24 hours): 2.1 fold | Fold-Change RN7SK (U20S cells; 24 hours): 15.3 fold | Fold-Change SCG5 (U20S cells; 24 hours): 4.9 fold | Fold-Change SLC7A11 (U20S cells; 24 hours): 4.1 fold | Fold-Change SNORD3A (U20S cells; 24 hours): 4.2 fold | Fold-Change SNORD3C (U20S cells; 24 hours): 4.8 fold | Fold-Change SNORD3D (U20S cells; 24 hours): 4.8 fold | Fold-Change SPP1 (U20S cells; 24 hours): 6.6 fold | Fold-Change TGFBI (U20S cells; 24 hours): −2.0 fold | pT308 AKT levels / inhibition of AKT phosphorylation (pT308 AKT): decreased dramatically between 4 and 8 hours | Partial rescue of Cyclin B1 levels by ALLN (Cyclin B1): 1.3 fold
